Data on 10 molecules can be found in PMC9521575, “Multiple tachykinins and their receptors characterized in the gastropod mollusk Pacific abalone: Expression, signaling cascades, and potential role in regulating lipid metabolism” (Frontiers in Endocrinology, 2022).

The test system of assay [1] is Hdh-TKRL-mediated phosphorylation of ERK1/2. As to the kind of experiment: Western blotting of ERK1/2 phosphorylation in Hdh-TKRL-transfected HEK293 cells. The settings on record: inhibitor 10^-5 M pre-incubated 60 min, then Hdh-TK2-2 for 5 min, western blot. The class given is cell-based, Human. On the procedure: (§1) HEK293 cells were seeded into 6-well plates (0.3 × 10^6 cells/well) and transfected with 3 μg of pcDNA3-HA-Hdh-TKR plasmids or vehicle pcDNA3-HA plasmid as described for the luciferase reporter assays. At 24 h after transfection, the cells were incubated with serum-free DMEM for 6 h at 37°C and then exposed to a PKA inhibitor (H89, 10^-5 M; Sigma-Aldrich) or PKC inhibitor (Gö6983, 10^-5 M; Sigma-Aldrich) for 60 min. After the medium was replace with fresh serum-free DMEM, the cells were exposed to Hdh-TK-2-2 peptide (5×10^-9 or 10^-7 M) or TPA (10^-7 M) for a further 5 min. The methods employed for cell lysate preparation, polyacrylamide gel electrophoresis, protein transfer to nitrocellulose membranes, and membrane washing were from a previous report ([39]). The membranes were incubated with a monoclonal mouse p44/42 MAPK, rabbit phospho-p44/42 MAPK (ERK1/2) (Thr202/Tyr204) (Cell Signaling, Danvers, MA, USA), or mouse GAPDH (Santa Cruz Biotechnology, Santa Cruz, CA, USA) primary antibody at 4°C for 16 h, followed by incubation with goat anti-mouse IgG-HRP or goat anti-rabbit IgG-HRP secondary antibody (Santa Cruz Biotechnology, Santa Cruz, CA, USA) at room temperature for 2 h. […]
In general terms: Immunoblotting shows a protein as a band on a membrane.

Assay [2] relates to Hdh-TKRS-mediated phosphorylation of ERK1/2. The assay can be described thus: Western blotting of ERK1/2 phosphorylation in Hdh-TKRS-transfected HEK293 cells. Type of assay: cell-based, Human. The settings on record: inhibitor 10^-5 M pre-incubated 60 min, then Hdh-TK2-2 for 5 min, western blot. The procedure: as §1
The subject of assay [3] is Hdh-TKRL. As to the kind of experiment: SRE-Luc luciferase reporter assay in Hdh-TKRL-expressing HEK293 cells. The class given is cell-based, Haliotis discus hannai. The settings on record: for EC50: HEK293 cells, peptide treatment 6 h, Supplementary Table 4, read-out: EC50 for Hdh-TKRL activation, SRE-Luc reporter. The procedure:
(§2) Human embryonic kidney 293 (HEK293) cells were maintained in Dulbecco’s modified Eagle medium (DMEM; Gibco, Loughborough, UK) containing 10% fetal bovine serum (FBS; Hyclone, GE Healthcare, Chicago, IL, USA) and 1% penicillin/streptomycin (P/S; Invitrogen) at 37°C in 5% CO2. Sixteen hours before transfection, HEK293 cells were seeded into 24-well plates (5 × 10^4 cells/well). Transfection and luciferase activities were analyzed as previously described ([39]). Briefly, HEK293 cells were transfected with 100 ng of pcDNA3-HA expression plasmid containing Hdh-TKR (pcDNA3-HA-Hdh-TKR) or vehicle pcDNA3-HA plasmid using 0.9 μL of a polyethyleneimine transfection reagent (Sigma-Aldrich, St. Louis, MO, USA), along with 100 ng of a luciferase reporter plasmid containing cAMP response element (CRE-Luc) or serum response element (SRE-Luc), and 100 ng of a pRSV-β-galactosidase expression plasmid as an internal control. At 3 h after transfection, the culture medium was replaced by new DMEM with 1% P/S and 10% FBS, and the HEK293 cells were cultured for a further 30 h and then maintained in DMEM without FBS for 16 h. Finally, the HEK293 cells were treated with synthesized peptides, forskolin (Sigma-Aldrich), 12-O-tetradecanoylphorbol-13-acetate (TPA; Sigma-Aldrich), or an equal volume of peptide-free medium (as vehicle control) for 6 h. Luciferase activity was analyzed using a microplate-luminometer (Berthold Tech., Bad Wildbad, Germany) and normalized to the β-galactosidase activity, detected by absorbance at 405 nm using a microplate reader (Tecan, Mannedorf, Switzerland).
Background: Reporter assays use an easily measured gene product as a stand-in for the process of interest.

Assay [4] relates to Hdh-TKRL. As to the kind of experiment: CRE-Luc luciferase reporter assay in Hdh-TKRL-expressing HEK293 cells. The class given is cell-based, Haliotis discus hannai. The settings on record: for EC50: HEK293 cells, peptide treatment 6 h, Supplementary Table 4, read-out: EC50 for Hdh-TKRL activation, CRE-Luc reporter. The procedure: as §2
The test system of assay [5] is Hdh-TKRL. The assay can be described thus: Ca2+ mobilization assay (aequorin luminescence) in Hdh-TKRL-transfected CHO-K1 cells. The settings on record: Hdh-TKRL- and aequorin-expressing CHO-K1 cells; luminescence relative to maximal response at 10^-6 M; n = 3 or 4; read-out: EC50 on intracellular Ca2+ mobilization. Type of assay: cell-based, Haliotis discus hannai. The procedure: (§3) Ca^2+ mobilization assays were performed as described previously ([39]). Briefly, Chinese hamster ovary K1 (CHO-K1) cells were maintained in DMEM-F12 Nutrient Mixture Ham supplemented with 10% FBS (Hyclone) and 1% P/S (Invitrogen) at 37°C in 5% CO2. Cells were grown in a monolayer to 60% confluency in 100 mm dishes (1.5 × 10^6 cells) and transiently transfected with 2 μg of pcDNA3-HA-Hdh-TKR plasmid with 2 μg of a Ca^2+-reporter aequorin plasmid and 2 μg of Gαq plasmid using 18 μL of FuGENE6 transfection reagent (Promega). The cells were washed in assay buffer including phenol red-free DMEM/F-12 with 0.1% bovine serum albumin (BSA) and 1% P/S and collected by brief centrifugation. Probenecid (1.25 mM final concentration, Invitrogen) and coelenterazine (5 μM, Gold Biotech., St. Louis, MO, USA) were added to resuspended CHO-K1 cells in 5 mL of assay buffer and the cells were gently agitated for 2.5 h using a magnetic stirrer at room temperature and shielded from light. […] While stirring gently, 50 μL of the cell suspension was injected into a luminescence microplate reader (Berthold Tech.), and luminescence was recorded for 20 s and for a further 10 s after injection of the assay buffer, including 0.2% Triton X-100 to measure the total Ca^2+ response. […]

Assay [6] has as its system Hdh-TKRS. The assay can be described thus: SRE-Luc luciferase reporter assay in Hdh-TKRS-expressing HEK293 cells. The class given is cell-based, Haliotis discus hannai. The settings on record: for EC50: HEK293 cells, peptide treatment 6 h, Supplementary Table 3, read-out: EC50 for Hdh-TKRS activation, SRE-Luc reporter. On the procedure: as §2
Assay [7] has as its system Hdh-TKRS. The assay can be described thus: Ca2+ mobilization assay (aequorin luminescence) in Hdh-TKRS-transfected CHO-K1 cells. The class given is cell-based, Haliotis discus hannai. The settings on record: Hdh-TKRS- and aequorin-expressing CHO-K1 cells; luminescence relative to maximal response at 10^-6 M; n = 3 or 4; read-out: EC50 on intracellular Ca2+ mobilization. The procedure:
as §3
For orientation: A change in cytosolic calcium serves as a functional read-out for many receptors and channels.

Assay [8] deals with Hdh-TKRS. As to the kind of experiment: CRE-Luc luciferase reporter assay in Hdh-TKRS-expressing HEK293 cells. The class given is cell-based, Haliotis discus hannai. The settings on record: for EC50: HEK293 cells, peptide treatment 6 h, Supplementary Table 3, read-out: EC50 for Hdh-TKRS activation, CRE-Luc reporter. The procedure: as §2
Assay [9] concerns the target Hdh-TKRS (tachykinin receptor, short isoform) (Haliotis discus hannai).
The target in assay [10] is Hdh-TKRL (tachykinin receptor, long isoform) (Haliotis discus hannai).
Setting [11] is: Hdh-TKRL-transfected HEK293 cells, n = 3.
Where [12] appears, read: Hdh-TKRS-transfected HEK293 cells, n = 3.

Non-standard residues stand in square brackets, D forms with d. Residues, ends and D or L forms follow the SMILES beside them. No end group written: not given here. pGlu = O=C1CC[C@@H](C(=O)O)N1

`COc1ccc2c(c1)c(C1=C(c3c[nH]c4ccccc34)C(=O)NC1=O)cn2CCCN(C)C` [Gö6983]: in assay [1], the “effect of inhibitor on Hdh-TKRL-mediated phosphorylation of ERK1/2” value is “almost abolished”. The “effect of inhibitor on Hdh-TKRS-mediated phosphorylation of ERK1/2” value in [2] is given as “almost abolished”.
In the case of `O=S(=O)(NCCNC/C=C/c1ccc(Br)cc1)c1cccc2cnccc12` [H89], in assay [1], the “effect of inhibitor on Hdh-TKRL-mediated phosphorylation of ERK1/2” value is “decreased”.
The EC50 is the concentration giving half of the maximal effect. For `CC(C)[C@H](NC(=O)CNC(=O)[C@H](Cc1c[nH]cn1)NC(=O)[C@H](Cc1ccccc1)NC(=O)CNC(=O)[C@H](Cc1ccccc1)NC(=O)[C@H](Cc1c[nH]cn1)NC(=O)[C@@H]1CCCN1C(=O)[C@@H]1CCC(=O)N1)C(=O)N[C@@H](CCCNC(=N)N)C(N)=O` [Hdh-TK1-3] ([pGlu]PHFGFHGVR-NH2), the EC50 in the assay on Hdh-TKRL [3] was 155 nM; in the assay on Hdh-TKRL [4], 284 nM; in the assay with Hdh-TKRL [5] it was 1.1 nM; in the assay on Hdh-TKRS [6], 171 nM; in the assay with Hdh-TKRS [7], 1.7 nM; with Hdh-TKRS [8], 15.1 nM.
For `CC(C)[C@H](NC(=O)[C@H](Cc1ccccc1)NC(=O)CNC(=O)[C@H](Cc1ccccc1)NC(=O)[C@H](Cc1c[nH]cn1)NC(=O)[C@H](CCCNC(=N)N)NC(=O)CN)C(=O)NCC(=O)N[C@@H](CO)C(=O)N[C@@H](CCCNC(=N)N)C(N)=O` [Hdh-TK2-1] (H-GRHFGFVGSR-NH2), the EC50 amounted to 141 nM in the assay on Hdh-TKRL [3]; 1100 nM with Hdh-TKRL [4]; 5.2 nM with Hdh-TKRL [5]; 3340 nM with Hdh-TKRS [6]; 4 nM in the assay with Hdh-TKRS [7]; 180 nM with Hdh-TKRS [8].
As for “APGWamide [abalone APGWamide peptide used as a negative control, reference compound]”, the “SRE-Luc reporter activity (in words)” value in the assay on Hdh-TKRL [3] (setting [11]) and in the assay with Hdh-TKRS [6] (setting [12]) was “did not activate” each time. For the same molecule, the “CRE-Luc reporter activity (in words)” value in the assay on Hdh-TKRL [4] (setting [11]) and in the assay on Hdh-TKRS [8] (setting [12]) was “did not activate” each time.

B1: Hdh-TK1-3 (peptide)
peptide: [pGlu]PHFGFHGVR-NH2
SMILES: CC(C)[C@H](NC(=O)CNC(=O)[C@H](Cc1c[nH]cn1)NC(=O)[C@H](Cc1ccccc1)NC(=O)CNC(=O)[C@H](Cc1ccccc1)NC(=O)[C@H](Cc1c[nH]cn1)NC(=O)[C@@H]1CCCN1C(=O)[C@@H]1CCC(=O)N1)C(=O)N[C@@H](CCCNC(=N)N)C(N)=O
Take B1: in assay [9], the EC50 of intracellular Ca2+ mobilization (aequorin luminescence) in Hdh-TKRS-transfected CHO-K1 cells was 1.7 nM. In [10], this molecule came in with an EC50 of intracellular Ca2+ mobilization (aequorin luminescence) in Hdh-TKRL-transfected CHO-K1 cells of 1.1 nM.
In the same order, the values of FGYVGSR-NH2 [Hdh-TK1-1] are 14.7 nM and 9.4 nM.
Taken in the same sequence, the figures for GRHFGFVGSR-NH2 [Hdh-TK2-1] were 4 nM and 5.2 nM.
Taken in the same sequence, the figures for TELGFGYVGSR-NH2 [Hdh-TK1-2] were 46 nM and 32 nM.
In the case of KPHFGFHGSR-NH2 [Hdh-TK2-2], the EC50 of intracellular Ca2+ mobilization (aequorin luminescence) in Hdh-TKRS-transfected CHO-K1 cells in assay [9] worked out at 1.2 nM. In addition, in [10], the EC50 of intracellular Ca2+ mobilization (aequorin luminescence) in Hdh-TKRL-transfected CHO-K1 cells was 0.7 nM.
